Laboratory results reported in patent US11571423B2, “Small molecule modulators of human sting” (Curadev Pharma Limited, priority 2017, dated 2023).

Legend:
IRF pathway = experiment: Reporter gene expression assay in THP1-Dual cells, IRF axis (secreted Lucia luciferase); type: cell-based, human; settings: Homo sapiens, 20 hr stimulation, EC50 range class, read-out: THP-IRF activity
How it was run: (§1)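 Human THP-1 monocyte-derived cells with two inducible reporters: 5×10^5 cells seeded and stimulated with compounds for 20 hr. SEAP (QUANTI-Blue) and Lucia luciferase (QUANTI-Luc) measured in supernatant; EC50 values reported as ranges.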

NF-κB pathway = experiment: Reporter gene expression assay in THP1-Dual cells, NFkB axis (secreted SEAP); type: cell-based, human; settings: Homo sapiens, 20 hr stimulation, EC50 range class, read-out: THP-NFκB activity
How it was run: as §1

hSTING(H232) = hSTING(H232) (Homo sapiens, UniProt Q86WV6); experiment: Luciferase reporter assay in HEK293T-hSTING-Luciferase cells, H232/REF polymorph; type: cell-based; settings: H232/REF polymorph of human STING, EC50 range class
How it was run: (§2)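 HEK293T cells stably co-express the hSTING variant (hEF1-HTLV promoter) and an ISRE/ISG54 IRF-inducible luciferase reporter. Clones with minimal ligand-independent activation were used. Cells were stimulated with compounds for 20 hr, and secreted luciferase in the supernatant was read by luminescence to give EC50.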

hSTING(R232) = hSTING(R232) (Homo sapiens, UniProt Q86WV6, H232R); experiment: Luciferase reporter assay in HEK293T-hSTING-Luciferase cells, R232 (wild type) human STING; type: cell-based; settings: 20 hr stimulation, read-out: R232 human activity (EC50 range)
How it was run: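 Clonal HEK293T cells stably expressing STING from a pUNO-1 plasmid plus an ISRE/ISG54-driven secreted luciferase reporter; 5×10^5 cells stimulated with compound for 20 hr. Supernatant luciferase read by luminescence, giving fold-induction over baseline and EC50.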

[1] = target: cynomolgus monkey STING protein (Macaca fascicularis, UniProt A0A2R3XZA6); experiment: Luciferase reporter assay, cynomolgus monkey STING overexpressed in HEK293T cells; type: cell-based; settings: cynomolgus monkey STING overexpressed in HEK293T cells; read-out: Cynomolgus monkey STING activity (EC50 range)
How it was run: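 HEK293T cells overexpressing cynomolgus STING with a secreted luciferase reporter were stimulated with compound for 20 hr. Supernatant reporter activity was then measured by Quanti-Luc luminescence, and EC50 values were derived.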

hSTING(HAQ) = hSTING(HAQ) (Homo sapiens, UniProt Q86WV6, G230A/H232R/R293Q/R71H); experiment: Luciferase reporter assay in HEK293T-hSTING-Luciferase cells, HAQ polymorph; type: cell-based; settings: HAQ polymorph of human STING, EC50 range class
How it was run: as §2

hSTING(HAQ), sequence (Q86WV6 whole entry R71H/G230A/H232R/R293Q): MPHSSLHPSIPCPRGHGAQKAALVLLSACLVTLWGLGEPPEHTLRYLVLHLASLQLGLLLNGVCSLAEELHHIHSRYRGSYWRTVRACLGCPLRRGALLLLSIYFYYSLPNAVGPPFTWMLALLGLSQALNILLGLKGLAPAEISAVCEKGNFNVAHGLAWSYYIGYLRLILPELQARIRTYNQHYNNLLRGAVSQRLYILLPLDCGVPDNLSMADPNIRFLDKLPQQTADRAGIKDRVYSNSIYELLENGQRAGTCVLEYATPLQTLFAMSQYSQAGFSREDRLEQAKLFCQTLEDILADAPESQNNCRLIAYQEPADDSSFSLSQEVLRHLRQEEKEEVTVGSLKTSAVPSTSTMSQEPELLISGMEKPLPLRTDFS
hSTING(H232), sequence (Q86WV6 whole entry): as the sequence (Q86WV6 whole entry R71H/G230A/H232R/R293Q) above, with H71R, A230G, R232H, Q293R counted along it
hSTING(R232), sequence (Q86WV6 whole entry H232R): as the sequence (Q86WV6 whole entry R71H/G230A/H232R/R293Q) above, with H71R, A230G, Q293R counted along it
cynomolgus monkey STING protein, sequence (A0A2R3XZA6 entry or part of it): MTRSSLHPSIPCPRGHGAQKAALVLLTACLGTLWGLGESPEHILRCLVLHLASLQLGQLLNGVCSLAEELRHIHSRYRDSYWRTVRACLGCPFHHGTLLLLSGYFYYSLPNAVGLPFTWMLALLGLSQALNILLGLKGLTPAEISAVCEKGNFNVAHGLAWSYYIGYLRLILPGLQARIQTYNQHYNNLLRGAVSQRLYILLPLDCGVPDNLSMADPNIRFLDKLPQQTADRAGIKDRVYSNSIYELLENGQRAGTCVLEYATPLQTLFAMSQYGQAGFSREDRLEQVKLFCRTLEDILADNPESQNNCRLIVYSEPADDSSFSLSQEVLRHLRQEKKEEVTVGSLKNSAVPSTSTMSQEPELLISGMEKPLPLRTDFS

| EC50 (IRF pathway) | EC50 (NF-κB pathway) | EC50 (hSTING(H232)) | EC50 (hSTING(R232)) | EC50 [1] | EC50 (hSTING(HAQ)) | SMILES |
| --- | --- | --- | --- | --- | --- | --- |
| < 1000 nM | < 1000 nM | < 1000 nM | < 1000 nM | < 1000 nM | < 1000 nM | CC(=O)Nc1ccc(COC(=O)Oc2cc(F)c(CN3C(=O)N(C)[C@@H](C)c4ccc(C(=O)NCc5c(F)cc(F)cc5F)cc43)c(F)c2)cc1 [Example 85, (S)-4-Acetamidobenzyl-(4-((3,4-dimethyl-2-oxo-7-((2,4,6-trifluorobenzyl)carbamoyl)-3,4-dihydroquinazolin-1(2H)-yl)methyl)-3,5-difluorophenyl) carbonate] |
| < 1000 nM | < 1000 nM | < 1000 nM | < 1000 nM | < 1000 nM | < 1000 nM | C[C@H]1c2ccc(C(=O)NCc3c(F)cc(F)cc3F)cc2N(Cc2c(F)cc(O)cc2F)C(=O)N1C [Example 78, (S)-1-(2,6-difluoro-4-hydroxybenzyl)-3,4-dimethyl-2-oxo-N-(2,4,6-trifluorobenzyl)-1,2,3,4-tetrahydroquinazoline-7-carboxamide] |
| < 1000 nM | < 1000 nM | < 1000 nM | < 1000 nM | < 1000 nM | < 1000 nM | C[C@H]1c2ccc(C(=O)NCc3c(F)cc(F)cc3F)cc2N(Cc2c(F)ccc(O)c2Cl)C(=O)N1C [Example 87, (S)-1-(2-Chloro-6-fluoro-3-hydroxybenzyl)-3,4-dimethyl-2-oxo-N-(2,4,6-trifluorobenzyl)-1,2,3,4-tetrahydroquinazoline-7-carboxamide] |
| < 1000 nM | < 1000 nM | < 1000 nM | < 1000 nM | < 1000 nM | < 1000 nM | C[C@H]1c2ccc(C(=O)NCc3c(F)cc(F)cc3F)cc2N(Cc2c(Cl)ccc(F)c2F)C(=O)N1C [Example 177, (S)-1-(6-chloro-2,3-difluorobenzyl)-3,4-dimethyl-2-oxo-N-(2,4,6-trifluorobenzyl)-1,2,3,4-tetrahydroquinazoline-7-carboxamide] |
| < 1000 nM | < 1000 nM | < 1000 nM | < 1000 nM | < 1000 nM | < 1000 nM | Cc1nccc(CN2C(=O)N(C)[C@@H](C)c3ccc(C(=O)NCc4c(F)cc(F)cc4F)cc32)c1F [Example 261, (S)-1-((3-fluoro-2-methylpyridin-4-yl)methyl)-3,4-dimethyl-2-oxo-N-(2,4,6-trifluorobenzyl)-1,2,3,4-tetrahydroquinazoline-7-carboxamide] |
| < 1000 nM | < 1000 nM | < 1000 nM | < 1000 nM | < 1000 nM | < 1000 nM | C[C@H]1c2ccc(C(=O)NCc3c(F)cc(F)cc3F)cc2N(Cc2c(F)cc(OCCNS(C)(=O)=O)cc2F)C(=O)N1C [Example 290, (S)-1-(2,6-difluoro-4-(2-(methylsulfonamido)ethoxy)benzyl)-3,4-dimethyl-2-oxo-N-(2,4,6-trifluorobenzyl)-1,2,3,4-tetrahydroquinazoline-7-carboxamide] |
| < 1000 nM | < 1000 nM | < 1000 nM | < 1000 nM | < 1000 nM | < 1000 nM | Cc1ccc(Cl)c(CN2C(=O)N(C)[C@@H](C)c3ccc(C(=O)NCc4c(F)cc(F)cc4F)cc32)c1F [Example 169, (S)-1-(6-chloro-2-fluoro-3-methylbenzyl)-3,4-dimethyl-2-oxo-N-(2,4,6-trifluorobenzyl)-1,2,3,4-tetrahydroquinazoline-7-carboxamide] |
| < 1000 nM | < 1000 nM | < 1000 nM | < 1000 nM | < 1000 nM | < 1000 nM | C[C@H]1c2ccc(C(=O)NCc3c(F)cc(F)cc3F)cc2N(Cc2c(F)ccc(C(N)=O)c2F)C(=O)N1C [Example 141, (S)-1-(3-Carbamoyl-2,6-difluorobenzyl)-3,4-dimethyl-2-oxo-N-(2,4,6-trifluorobenzyl)-1,2,3,4-tetrahydroquinazoline-7-carboxamide] |
| < 1000 nM | < 1000 nM | < 1000 nM | < 1000 nM | < 1000 nM | < 1000 nM | C[C@H]1c2ccc(C(=O)NCc3c(F)cc(F)cc3F)cc2N(Cc2c(F)ccc(N)c2Cl)C(=O)N1C [Example 188, (S)-1-(3-amino-2-chloro-6-fluorobenzyl)-3,4-dimethyl-2-oxo-N-(2,4,6-trifluorobenzyl)-1,2,3,4-tetrahydroquinazoline-7-carboxamide] |
| < 1000 nM | < 1000 nM | < 1000 nM | < 1000 nM | < 1000 nM | < 1000 nM | C[C@H]1c2ccc(C(=O)NCc3c(F)cc(F)cc3F)cc2N(Cc2c(F)ccc(OCCCO)c2Cl)C(=O)N1C [Example 138, (S)-1-(2-Chloro-6-fluoro-3-(3-hydroxypropoxy)benzyl)-3,4-dimethyl-2-oxo-N-(2,4,6-trifluorobenzyl)-1,2,3,4-tetrahydroquinazoline-7-carboxamide] |
| < 1000 nM | < 1000 nM | < 1000 nM | < 1000 nM | < 1000 nM | < 1000 nM | C[C@H]1c2ccc(C(=O)NCc3c(F)cc(F)cc3F)cc2N(Cc2c(F)cc(OC[C@@H](O)CO)cc2F)C(=O)N1C [Example 147, (S)-1-(4-((S)-2,3-Dihydroxypropoxy)-2,6-difluorobenzyl)-3,4-dimethyl-2-oxo-N-(2,4,6-trifluorobenzyl)-1,2,3,4-tetrahydroquinazoline-7-carboxamide] |
| < 1000 nM | < 1000 nM | < 1000 nM | < 1000 nM | 1000 to 10000 nM | < 1000 nM | C[C@H]1c2ccc(C(=O)NCc3c(F)cc(F)cc3F)cc2N(Cc2c(F)ccc(OCCCO)c2F)C(=O)N1C [Example 257, (S)-1-(2,6-difluoro-3-(3-hydroxypropoxy)benzyl)-3,4-dimethyl-2-oxo-N-(2,4,6-trifluorobenzyl)-1,2,3,4-tetrahydroquinazoline-7-carboxamide] |
| < 1000 nM | < 1000 nM | < 1000 nM | < 1000 nM | < 1000 nM | < 1000 nM | C[C@H]1c2ccc(C(=O)NCc3c(F)cc(F)cc3F)cc2N(Cc2c(F)ccc(F)c2Cl)C(=O)N1C [Example 179, (S)-1-(2-chloro-3,6-difluorobenzyl)-3,4-dimethyl-2-oxo-N-(2,4,6-trifluorobenzyl)-1,2,3,4-tetrahydroquinazoline-7-carboxamide] |
| < 1000 nM | < 1000 nM | < 1000 nM | < 1000 nM | < 1000 nM | < 1000 nM | C[C@H]1c2ccc(C(=O)NCc3c(F)cc(F)cc3F)cc2N(Cc2c(F)cc(O)cc2Cl)C(=O)N1C [Example 298, (S)-1-(2-chloro-6-fluoro-4-hydroxybenzyl)-3,4-dimethyl-2-oxo-N-(2,4,6-trifluorobenzyl)-1,2,3,4-tetrahydroquinazoline-7-carboxamide] |
